# Assay results as given in ChEMBL document CHEMBL5724581, “Toxicity screen in purified B cell assay results for EUbOPEN Chemogenomics Library” (2024).
# Values joined by “and” are separate entries in the source; they are usually repeats but may differ in a detail not shown here. Identical values can stand only once. Bridge positions count the residues as written; N and C are the ends. Square brackets hold non-standard residues; d marks the D form. Peptide text beside a SMILES is read from it. * marks the point of attachment. dPhe(4-NHCONH2) = NC(=O)Nc1ccc(C[C@@H](N)C(=O)O)cc1; Dihydroorotyl(S) = O=C1C[C@@H](C(=O)*)NC(=O)N1; dPhe(4-Cl) = N[C@H](Cc1ccc(Cl)cc1)C(=O)O; Phe(4-NH2) = Nc1ccc(C[C@H](N)C(=O)O)cc1; d2Nal = N[C@H](Cc1ccc2ccccc2c1)C(=O)O; Lys(iPr) = CC(C)NCCCC[C@H](N)C(=O)O; d3Pal = N[C@H](Cc1cccnc1)C(=O)O; Orn = NCCC[C@H](N)C(=O)O; Mpa = O=C(O)CCS
# Tested on: B cell
# Assay: Cytotoxicity screening of chemical probes in isolated B cell assay. Data is normalized to DMSO control, the cell viability average of replicates are reported. Reduction of ATP level more than 20% indicate compromised cell health status.
# Conditions: human, 1 µM
row,SMILES,Cell Viability
1,CCOc1nc2cccc(C(=O)O)c2n1Cc1ccc(-c2ccccc2-c2nnn[nH]2)cc1,98.0011%
2,CCCCC(=O)N(Cc1ccc(-c2ccccc2-c2nnn[nH]2)cc1)[C@H](C(=O)O)C(C)C,98.0011%
3,CC1(C)[C@H]2C[C@H](C/C=C\CCCC(=O)O)[C@@H](NC(=O)c3csc4ccc(O)cc34)[C@@H]1C2,98.0011%
4,COCCn1c(C)c(C)s/c1=N\C(=O)C1C(C)(C)C1(C)C,98.0011%
5,CC#C[C@@H](CC(=O)O)c1ccc(OCc2cccc(-c3ccc(C(F)(F)F)cc3)c2)cc1,98.0011%
6,Cc1cc(OCCCS(C)(=O)=O)cc(C)c1-c1cccc(COc2ccc3c(c2)OC[C@H]3CC(=O)O)c1,98.0011%
7,COc1ccncc1C(=O)NC(=O)Nc1ccc(-c2ccccc2)c(C(F)(F)F)c1,98.0011%
8,COc1cccc2c1c(NS(=O)(=O)c1ccc(Cl)s1)nn2Cc1cccc(CNC(=O)C(C)(C)O)c1,103.681%
9,O=C(O)c1n[nH]c2c1C[C@H]1C[C@@H]21,98.0011%
10,CCc1nc2c(C)cc(C)nc2[nH]1,98.0011%
11,c1ccc(NCc2ccc(CNc3ccccn3)cc2)nc1,99.8082%
12,Cc1nnc(C(=O)NC(C)(C)c2nc(C(=O)NCc3ccc(F)cc3)c(O)c(=O)n2C)o1,103.493%
13,CSc1ccc(C(=O)N[C@@H]2CCCC[C@@H]2NC(=O)CNC(=O)c2cc(C(F)(F)F)ccc2NC(=O)NC(C)C)cc1,102.032%
14,CSc1cc2c(cc1C(F)(F)F)N(C(=O)Nc1cccnc1)CC2,98.0011%
15,CC[C@H]1OC(=O)[C@H](C)[C@@H](O[C@H]2C[C@@](C)(OC)[C@@H](O)[C@H](C)O2)[C@H](C)[C@@H](O[C@@H]2O[C@H](C)C[C@H](N(C)C)[C@H]2O)[C@@]2(C)CC(C)=C(O2)[C@H](C)[C@@H](O)[C@]1(C)O,98.0011%
16,Cc1cc(Cn2cnc3c2C[C@@H](C(=O)O)N(C(=O)C(c2ccccc2)c2ccccc2)C3)ccc1N(C)C,98.0011%
17,COc1ccc(C(=O)N2CCN(C(=O)/C=C/c3ccc(Br)cc3)CC2)cc1,98.0011%
18,Cc1nc[nH]c1CCN.Cl,98.0011%
19,N#Cc1c(O)nc(SCc2cccc(F)c2F)nc1C1CC1,104.007%
20,Cc1ccc(Cn2nc(C(=O)N[C@@H]3C(C)(C)[C@@H]4CC[C@@]3(C)C4)cc2-c2ccc(Cl)c(C)c2)cc1,98.0011%
21,N#Cc1ccc(NC(=O)Nc2ccccc2Br)c2nn[nH]c12,104.304%
22,NS(=O)(=O)c1c(Cl)ccc(NC(=O)Nc2cccc(Cl)c2Cl)c1O,102.927%
23,COc1cc(C(=O)N(CCCc2ccccc2)Cc2ccc(CC(=O)O)cc2)cc(OC)c1C,98.0011%
24,C[C@H](CO)Nc1nc(SCc2cccc(Cl)c2F)nc2[nH]c(=O)sc12,95.8941%
25,O=C(NCc1ccc(F)cc1)N1CCN2C(=O)OC(c3ccccc3)(c3ccccc3)C2C1 (stereo not drawn),98.0011%
26,Cl.O=c1c2cccn2c2ccccc2n1CCCN1CCC(c2ccc(Cl)cc2)CC1,98.0011% and 103.839%
27,NC(=O)c1ccc(CNC(=O)NC[C@H]2CN(Cc3ccc(Cl)c(Cl)c3)CCO2)cc1,98.0011%

row,SMILES,Cell Viability
1,Nc1nc2c(c(N3CCNCC3)n1)CCC1=C2[C@@H]2CCCC[C@@H]2O1,100.079%
2,"CCCn1c(=O)c2[nH]c(C3CCCC3)nc2n(CCC)c1=O [1,3-DIPROPYL-8-CYCLOPENTYLXANTHINE [DPCPX]]",98.0011%
3,Cc1[nH]cnc1CN1CCc2c(c3ccccc3n2C)C1=O [ALOSETRON],98.0011%
4,COC(c1ccccc1)(c1ccccc1)[C@H](Oc1nc(C)cc(C)n1)C(=O)O [AMBRISENTAN],98.0011%
5,C[C@@H](O[C@H]1OCCN(Cc2n[nH]c(=O)[nH]2)[C@H]1c1ccc(F)cc1)c1cc(C(F)(F)F)cc(C(F)(F)F)c1 [APREPITANT],98.0011%
6,CCOc1ccc(C[C@H]2NC(=O)CCSSC[C@@H](C(=O)N3CCC[C@H]3C(=O)N[C@@H](CCCN)C(=O)NCC(N)=O)NC(=O)[C@H](CC(N)=O)NC(=O)[C@H]([C@@H](C)O)NC(=O)[C@H]([C@@H](C)CC)NC2=O)cc1 [ATOSIBAN] ([Mpa][dY](Et)ITNCP[Orn]G-NH2; disulfide 1-6),98.0011%
7,CC(C)C[C@H](CO)Nc1nc(S[C@@H](C)c2ccccc2)nc2nc(N)sc12 [AZD-8797],97.9584%
8,CC(C)C[C@@H]1NC(=O)[C@@H](C(C)C)NC(=O)[C@@H]2CCCN2C(=O)[C@@H](CC(=O)O)NC(=O)[C@@H](Cc2c[nH]c3ccccc23)NC1=O [BQ-123] (cyclo(L[dW][dD]P[dV])),98.0011%
9,C[C@@H]1CN(Cc2ccc(F)cc2)CCN1C(=O)COc1ccc(Cl)cc1NC(N)=O [BX 471 FREE BASE],98.0011% and 103.598%
10,Cc1c(F)cccc1NC(=O)Nc1ccc(Cl)c(S(=O)(=O)[C@H]2CCCNC2)c1O [DANIRIXIN],101.889%
11,CC(=O)N[C@H](Cc1ccc2ccccc2c1)C(=O)N[C@H](Cc1ccc(Cl)cc1)C(=O)N[C@H](Cc1cccnc1)C(=O)N[C@@H](CO)C(=O)N[C@@H](Cc1ccc(NC(=O)[C@@H]2CC(=O)NC(=O)N2)cc1)C(=O)N[C@H](Cc1ccc(NC(N)=O)cc1)C(=O)N[C@@H](CC(C)C)C(=O)N[C@@H](CCCCNC(C)C)C(=O)N1CCC[C@H]1C(=O)N[C@H](C)C(N)=O [DEGARELIX] (Ac-[d2Nal][dPhe(4-Cl)][d3Pal]S[Phe(4-NH2)](Dihydroorotyl(S))[dPhe(4-NHCONH2)]L[Lys(iPr)]P[dA]-NH2),98.0011%
12,O=C(O)Cc1ccccc1Nc1c(Cl)cccc1Cl [DICLOFENAC],98.0011% and 91.1433%
13,C[C@]12N[C@H](Cc3ccccc31)c1ccccc12 [DIZOCILPINE],98.0011%
14,O=S(=O)(c1ccccc1)c1cnc2c(N3CCNCC3)cccc2c1 [INTEPIRDINE],98.0011%
15,c1cc(OCCCN2CCCCC2)ccc1CN1CCCCC1 [JNJ-5207852],98.0011%
16,CCNC1(C(N)=O)CCN(c2ncnc3c2nc(-c2ccccc2Cl)n3-c2ccc(Cl)cc2)CC1 [OTENABANT],98.0011%
17,O=C(NCC(=O)N1CC[C@H](N[C@H]2CC[C@@](O)(c3ccc(-c4ncccn4)cn3)CC2)C1)c1cccc(C(F)(F)F)c1 [PF-4136309],99.5458%
18,c1cc(CN2CCCNCCNCCCNCC2)ccc1CN1CCCNCCNCCCNCC1 [PLERIXAFOR],104.498%
19,CC(C)Cc1ccc([C@@H](C)C(=O)NS(C)(=O)=O)cc1 [REPARIXIN],98.0011% and 100.432%
20,Cc1c(C(=O)NN2CCCCC2)nn(-c2ccc(Cl)cc2Cl)c1-c1ccc(Cl)cc1 [RIMONABANT],98.0011%
21,C[C@@H](OC[C@@]1(c2ccccc2)CC[C@]2(CCC(=O)N2)CN1)c1cc(C(F)(F)F)cc(C(F)(F)F)c1 [ROLAPITANT],98.0011%
22,CC(C)N(CCCCOCC(=O)NS(C)(=O)=O)c1cnc(-c2ccccc2)c(-c2ccccc2)n1 [SELEXIPAG],98.0011%
23,Cc1ccc2c(c1CCC(=O)O)CC[C@@H](NS(=O)(=O)c1ccc(Cl)cc1)C2 [TERUTROBAN],98.0011%
24,Cl.Clc1ccc2nsnc2c1NC1=NCCN1 [TIZANIDINE HYDROCHLORIDE],98.0011%
25,Cc1ccc(/C(=C\CN2CCCC2)c2ccccn2)cc1 [TRIPROLIDINE],98.0011%
26,COC[C@@H](c1ccc(C(F)(F)F)cc1)N1CCN(C2(C)CCN(C(=O)c3c(C)ncnc3C)CC2)C[C@@H]1C.O=C(O)/C=C\C(=O)O [VICRIVIROC MALEATE],101.876%
